Measured values as given in patent US11345675B2, “Compound, anti-allergy drug, and mediator release inhibitor” (LAIMU CORPORATION, priority 2018, dated 2022).
“Also recorded” adds a separate entry of the source.

Assays:
[1] = system: rat basophilic leukemia cells RBL-2H3; test: Degranulation inhibiting test (β-hexosaminidase release induced by antigen-antibody reaction); type: cell-based; conditions: RBL-2H3 cells, anti-DNP-IgE/DNP-HSA stimulation; compounds 1, 2 and 6-sPalm-AA-2G at 40, 60 or 80 μM, oxatomide 75 μM; FIG. 1
Method: In this Example, the compound 1 and the compound 2 were evaluated in terms of the effect thereof to inhibit degranulation to be induced by stimulation of an antigen-antibody reaction. Degranulation was quantified based on, as an index, β-hexosaminidase release from rat basophilic leukemia cells RBL-2H3. Specifically, β-hexosaminidase is an enzyme released through degranulation of mast cells or basocytes, and through enzymatic reaction with a substrate, p-nitrophenyl-2-acetamide-2-deoxy-β-glucopyranoside, this increases the absorbance at 405 nm of the reaction liquid. Here, the degranulation inhibiting effect was evaluated from the absorbance change as an index of β-hexosaminidase release amount (degree of degranulation).
The compound 1 and the compound 2 were individually dissolved in a 0.25% dimethyl sulfoxide-containing MT buffer at a concentration of 40 μM, 60 μM or 80 μM to prepare solutions to be evaluation samples. On the other hand, as comparative samples, 6-sPalm-AA-2G was dissolved in a 0.25% dimethyl sulfoxide-containing MT buffer at a concentration of 40 μM, 60 μM or 80 μM to prepare solutions, and oxatomide was dissolved in a 0.25% dimethyl sulfoxide-containing MT buffer at a concentration of 75 μM to prepare a solution. […]

[2] = system: PCA (passive cutaneous anaphylaxis) reaction; test: PCA reaction inhibition test (Evans blue dye leakage in auricle); type: in vivo; conditions: applied to auricle of ICR male mice, 90 nmol/auricle (6-sPalm-AA-2G 150 nmol/auricle), 3.5 hours before DNP-HSA-Evans blue i.v.; FIG. 2
Method: In this Example, the anti-allergy activity of the compound 1 and the compound 2 was evaluated based on, as an index, the inhibiting effect thereof against PCA (passive cutaneous anaphylaxis) reaction. PCA reaction is a series of cell reaction of an allergy reaction including immobilization of mast cells via an Fc part of immunoglobulin, antigen-antibody reaction on the cells, release of inflammatory mediator from the mast cells through the reaction and promotion of vascular permeability. Here, after an anti-DNP-IgE antibody solution has been subcutaneously administered to a test body, a solution containing a 2,4-dinitrophenyl group (DNP)-labeled human serum albumin (HSA) and a dye (Evans blue) (DNP-HSA-Evans blue solution) is intravenously administered, and the vascular permeability increase according to the antigen-antibody reaction is quantified by the absorbance increase owing to dye leakage from the blood vessel to the tissue to thereby evaluate the PCA reaction inhibiting effect. […]
An aqueous 1 N potassium hydroxide solution (0.5 mL) was added to the thus-cut auricle, and shaken at 37° C. overnight. After shaking, a mixed solution (3.25 mL) of aqueous 0.34 M phosphoric acid solution/acetone=13/5 (v/v) was added, and centrifuged by 700×g at 4° C. for 20 minutes, and the absorbance at 620 nm of the supernatant was measured. […]

Row | Compound | β-hexosaminidase release inhibition ratio (degranulation inhibition ratio) [1] | dye leakage (relative absorbance at 620 nm, control = 100) [2]
1 | CCCCCCCCCCCCCCCC(=O)OC[C@H](O)[C@H]1OC(=O)C(OC)=C1O [compound 1] | greatly higher than the degranulation inhibition ratio of the system added with 6-sPalm-AA-2G, and surpasses the degranulation inhibition ratio of the system added with oxatomide | lower than the dye leakage in the system with 6-sPalm-AA-2G
2 | CCCCCCCCCCCCCCCC(=O)NC[C@H](O)[C@H]1OC(=O)C(OC)=C1O [compound 2] | greatly higher than the degranulation inhibition ratio of the system added with 6-sPalm-AA-2G, and surpasses the degranulation inhibition ratio of the system added with oxatomide; also recorded: tends to have a higher degranulation inhibiting effect than the compound 1 | lower than the dye leakage in the system with 6-sPalm-AA-2G; also recorded: suppressed more than that in the system where oxatomide had been applied; also recorded: tends to have a higher anti-allergy activity than the compound 1
